Assay results taken from patent publication US6608055B2, “Crystalline anticholinergic, processes for preparing it and its use for preparing a pharmaceutical composition” (Boehringer Ingelheim Pharma KG, priority 2001, dated 2003).

Experiment: storage of the anhydrous form at controlled relative humidity (preservation of anhydrous state)
Assay type: physicochemical
Conditions: coarse crystals, r.h. = relative humidity
Method: Alternatively to the drying step at elevated temperature under reduced pressure described above, the anhydrous form may also be prepared by storing the crystalline tiotropium bromide monohydrate over a drying agent, preferably over dried silica gel at ambient temperature for a period of 12 to 96 hours, preferably 18 to 72 hours, most preferably at least 24 hours. The anhydrous form thus obtained should be stored more or less dry, depending on the particle size, to preserve its anhydrous state. In the case of coarse crystals of anhydrous tiotropium bromide, which may be prepared for example as described above, storage at <75% r.h. (relative humidity) is sufficient to maintain the anhydrous state. In the micronised state, i.e. where the material has a much larger surface area, water may even be absorbed at lower humidity levels. In order to maintain the anhydrous form in the micronised state, it is therefore advisable to store the anhydrous form of tiotropium bromide over dried silica gel until it is further processed to form the desired inhalable powder containing suitable excipients (e.g. lactose) in addition to tiotropium bromide.

## C[N+]1(C)C2C[C@H](OC(=O)C(O)(c3cccs3)c3cccs3)CC1[C@H]1OC21 (stereo partly drawn) [anhydrous tiotropium bromide, (1α,2β,4β,5α,7β)-7-[(hydroxydi-2-thienylacetyl)oxy]-9,9-dimethyl-3-oxa-9-azoniatricyclo[3.3.1.0^2,4]nonane-bromide]
  relative humidity of storage sufficient to maintain the anhydrous state: < 75 % r.h.
